The record followed here is ChEMBL document CHEMBL1149557, “Induction of GRP78 by valproic acid is dependent upon histone deacetylase inhibition” (2007).

The source made the active and inactive calls. The calls are words filed in the database; no cut-off is given here.

A word on the inhibition: it is the relative decrease from the control value, in per cent.

The subject of assay [1] is HEK293. Briefly: (§1) Increase in GRP78 protein level in HEK293 cells at 1 mM by immunoblot. The format is functional, cell-based. Conditions: Homo sapiens.
Assay [2] deals with HEK293. In words: Increase in protein disulfide isomerase level in HEK293 cells at 1 mM by immunoblot. The assay is classed as functional, cell-based. To be noted: Homo sapiens.
Assay [3] addresses Glycogen synthase kinase-3 beta (Homo sapiens) (UniProt P49841). In words: Inhibition of GSK3-beta at 2 mM relative to control.
Assay [4] has as its target T1, Histone deacetylase (Homo sapiens) (UniProt Q13547+O15379+Q9UBN7+Q92769+Q9UQL6+Q8WUI4+Q9BY41+Q96DB2+P56524+Q9UKV0+Q969S8). Briefly: Inhibition of HDAC in HEK293 cells assessed as increase in histone H4 acetylation at 1 mM after 48 hrs relative to control. The format is cell-based.
Assay [5] concerns HEK293. The description is as §1. The format is functional, Homo sapiens.
Assay [6] concerns HEK293. In words: Increase in GRP78 protein level in HEK293 cells at 10 ug/mL by immunoblot. The format is functional, cell-based. Conditions: Homo sapiens. Background: Immunoblotting shows a protein as a band on a membrane.
In assay [7] the test system is HEK293. In words: Induction of GADD153/CHOP protein level in HEK293 cells by immunoblot. The assay is classed as functional, cell-based. Conditions: Homo sapiens.
Assay [8] deals with HEK293. Briefly: Increase in protein disulfide isomerase level in HEK293 cells at 10 ug/ml by immunoblot. The format is functional, cell-based. Conditions: Homo sapiens.
Assay [9] deals with HEK293. In words: Increase in protein disulfide isomerase level in HEK293 cells at 2 mM by immunoblot. The format is functional, cell-based. To be noted: Homo sapiens.
The target of assay [10] is T1, Histone deacetylase (Homo sapiens). Briefly: Inhibition of HDAC in HEK293 cells assessed as increase in histone H4 acetylation at 2 mM after 48 hrs. The format is cell-based.
The test system of assay [11] is HEK293. In words: Increase in GRP78 protein level in HEK293 cells at 2 mM by immunoblot. To be noted: Homo sapiens. The assay is classed as functional, cell-based.
Assay [12] deals with HEK293. Briefly: Increase in GRP78 protein level in HEK293 cells at 600 nM by immunoblot. The assay is classed as functional, cell-based. Conditions: Homo sapiens.
Assay [13] has as its system HEK293. Briefly: Increase in protein disulfide isomerase level in HEK293 cells at 600 nM by immunoblot. The assay is classed as functional, cell-based. To be noted: Homo sapiens.

Glycogen synthase kinase-3 beta (Homo sapiens), sequence (P49841 whole entry, looked up): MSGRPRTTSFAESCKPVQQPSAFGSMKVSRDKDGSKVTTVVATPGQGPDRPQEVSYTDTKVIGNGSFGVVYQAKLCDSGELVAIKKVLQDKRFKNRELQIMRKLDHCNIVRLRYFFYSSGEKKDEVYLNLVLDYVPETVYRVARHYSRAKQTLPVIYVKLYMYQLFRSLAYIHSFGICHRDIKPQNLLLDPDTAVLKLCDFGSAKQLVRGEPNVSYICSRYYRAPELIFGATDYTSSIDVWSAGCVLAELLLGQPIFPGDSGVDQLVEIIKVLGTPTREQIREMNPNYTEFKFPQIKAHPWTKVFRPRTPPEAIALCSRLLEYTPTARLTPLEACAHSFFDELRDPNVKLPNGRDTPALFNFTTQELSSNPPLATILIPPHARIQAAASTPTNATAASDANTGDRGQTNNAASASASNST

`CCCC(CCC)C(=O)O` [VALPROIC ACID]: the outcome in assay [1] and in assay [2] was Active. For the same compound, the inhibition in [3] turned out to be 65.2%. For the same compound, the values for the Fold change in assay [4] and in assay [5] were 3.5 and 2, respectively.
Take `CC(=O)N[C@H]1[C@@H](O[C@@H]2O[C@H](CC(O)[C@H]3O[C@@H](n4ccc(=O)[nH]c4=O)[C@H](O)[C@@H]3O)[C@H](O)[C@H](O)[C@H]2NC(=O)/C=C/CC(C)C)O[C@H](CO)[C@@H](N)[C@@H]1O` (some centres undefined): the outcome in assay [6], in assay [7] and in assay [8] was Active.
For `CC/C=C(\CCC)C(=O)O`, the outcome in assay [9], in [10] and in assay [11] was Active. Also, in assay [3], the inhibition was 91.3%.
In the case of `CC(/C=C/C(=O)NO)=C\[C@@H](C)C(=O)c1ccc(N(C)C)cc1`, the result in assay [12] and in assay [13] was Active.
Regarding `O=C(O)CCCc1ccccc1`, in [10], the result was inactive. For the same compound, the inhibition in assay [3] was 126%.
Consider `CCC(CC)C(=O)O`, for which the result in assay [10] and in assay [11] was inactive. For the same compound, in assay [3], the inhibition worked out at 2.9%.
